Like-named read-outs stand apart in the source and are kept apart here.
Legend:
Type in all cases: in vivo
[1] = test system: Verconica persica (VERPE); experiment: Pre-emergence herbicidal action against VERPE; settings: dosage 320 g/ha
In short: (§1)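 Greenhouse pot trial: seeds sown, soil-covered, sprayed before emergence with compound in water (0.5% additive; 600 l/ha; ≤320 g/ha). Scoring visual, ~3 weeks, 0–100% scale vs untreated.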

[2] = test system: Brassica napus (BRSNW); settings: crop plant compatibility, in comparison to untreated controls
In short: (§2)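 Scoring: visual, % of untreated control, about 3 weeks after a pre-emergence application to the soil surface. Application used WP or EC formulations diluted in water with 0.5% additive at 600 l/ha; dosage levels are marked by suffixes a, b and c.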

[3] = test system: Glycine max (GLXMA); settings: pre-emergence, crop plant compatibility, in comparison to untreated controls
In short: as §2

[4] = test system: Oryza sativa (ORYSA); settings: pre-emergence, crop plant compatibility, in comparison to untreated controls
In short: as §2

[5] = test system: Triticum aestivum (TRZAS); settings: pre-emergence, crop plant compatibility, in comparison to untreated controls
In short: as §2

[6] = test system: Zea mays (ZEAMX); settings: pre-emergence, crop plant compatibility, in comparison to untreated controls
In short: as §2

[7] = test system: Oryza sativa (ORYSA); settings: crop plant compatibility
In short: (§3)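 Visual rating (% effect vs. untreated plants; 100% = plant death) made about 3 weeks after treatment. Plants had been sprayed at one-leaf stage, 2–3 weeks post-sowing, with aqueous WP/EC preparations containing 0.5% additive, 600 l/ha water volume; a, b, c mark dose levels.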

[8] = test system: Triticum aestivum (TRZAS); settings: crop plant compatibility, effect vs untreated controls
In short: as §3

[9] = test system: Zea mays (ZEAMX); settings: for Post-emergence action against ZEAMX in %: crop plant compatibility, effect vs untreated controls
In short: as §3

[10] = test system: Glycine max (GLXMA); experiment: Post-emergence crop plant compatibility, GLXMA; settings: for Post-emergence action against GLXMA in %: effect in comparison to untreated controls
In short: as §3

[11] = test system: Brassica napus (BRSNW); experiment: Post-emergence crop plant compatibility, BRSNW; settings: effect in comparison to untreated controls
Experimental: Seeds of monocotyledonous and dicotyledonous weeds and crop plants are placed in sandy loam in plastic or organic planting pots, covered with soil and cultivated in a greenhouse under controlled growth conditions. 2 to 3 weeks after sowing, the test plants are treated at the one-leaf stage. The compounds of the invention, formulated in the form of wettable powders (WP) or as emulsion concentrates (EC), are then sprayed onto the green parts of the plants as aqueous suspension or emulsion with addition of 0.5% additive at a water application rate of 600 l/ha (converted). After the test plants have been kept in the greenhouse under optimum growth conditions for about 3 weeks, the activity of the preparations is rated visually in comparison to untreated controls. For example, 100% activity=the plants have died, 0% activity=like control plants.
The observed effects on selected crop plants are reported here in comparison to the untreated controls (values in %). The appendices “a”, “b” and “c” give differentiation by dosage used with otherwise the same crop plants tested.

[12] = test system: Viola tricolor (VIOTR); experiment: Pre-emergence herbicidal action against VIOTR; settings: 320 g/ha, Viola tricolor
In short: as §1

[13] = 80 g/ha, effect in comparison to untreated controls

| Pre-emergence action against BRSNW in % ([2]; 80 g/ha) [%] | Pre-emergence action against BRSNW in % ([2]; 320 g/ha) [%] | Pre-emergence action against GLXMA in % ([3]; 320 g/ha) [%] | Pre-emergence action against ORYSA in % ([4]; 80 g/ha) [%] | Pre-emergence action against ORYSA in % ([4]; 320 g/ha) [%] | Pre-emergence action against TRZAS in % ([5]; 80 g/ha) [%] | Pre-emergence action against TRZAS in % ([5]; 320 g/ha) [%] | Pre-emergence action against ZEAMX in % ([6]; 80 g/ha) [%] | Pre-emergence action against ZEAMX in % ([6]; 320 g/ha) [%] | Post-emergence action against ORYSA in % [7, 13] [%] | Post-emergence action against TRZAS in % ([8]; 80 g/ha) [%] | Post-emergence action against ZEAMX in % ([9]; 80 g/ha) [%] | Post-emergence action against GLXMA in % ([10]; 80 g/ha) [%] | Post-emergence action against BRSNW in % ([11]; 80 g/ha) [%] | Structure (SMILES) | further results |
| --- | --- | --- | --- | --- | --- | --- | --- | --- | --- | --- | --- | --- | --- | --- | --- |
| 10 | 10 | 20 | 0 | 10 | 0 | 10 | 0 | 10 | 0 | 0 | 10 | 10 | 10 | CCOC(=O)C1CCN(C(=O)COc2nn(-c3ccccn3)c(-c3ccc(F)nc3)c2Br)CC1 [Example I-112] | Pre-emergence action against VERPE in % [1]: 80%; Post-emergence action against ORYSA in % ([7]; 20 g/ha, effect vs untreated controls): 0%; Post-emergence action against TRZAS in % ([8]; 20 g/ha): 0%; Post-emergence action against ZEAMX in % (crop plant compatibility) ([9]; 20 g/ha, ZEAMX, effect in comparison to untreated controls): 0%; Post-emergence action against GLXMA in % ([10]; 20 g/ha): 0%; Post-emergence action against BRSNW in % ([11]; 20 g/ha): 0% |
| 0 | 0 | 20 | 20 | 20 | 0 | 10 | 0 | 0 | 0 | 0 | 0 | 0 | 10 | O=C(CSc1nn(-c2ccccn2)c(-c2cncc(F)c2)c1Br)NS(=O)(=O)c1ccccc1 [Example I-200] | Pre-emergence action against VIOTR in % [12]: 100%; Pre-emergence action against GLXMA in % ([3]; 80 g/ha): 20%; Post-emergence action against ORYSA in % ([7]; 320 g/ha, effect in comparison to untreated controls): 0%; Post-emergence action against TRZAS in % ([8]; 320 g/ha): 0%; Post-emergence action against ZEAMX in % ([9]; 320 g/ha): 0%; Post-emergence action against GLXMA ([10]; 320 g/ha, effect vs untreated controls): 0%; Post-emergence action against BRSNW in % ([11]; 320 g/ha): 20% |

Source: US20240041042A1, “1-(PYRIDYL)-5-AZINYLPYRAZOLE DERIVATIVES, AND THEIR USE FOR CONTROL OF UNDESIRED PLANT GROWTH” (Bayer Aktiengesellschaft, priority 2020, published 2024)
